Data as given in publication PMC6934184, “Selective DNA-PKcs inhibition extends the therapeutic index of localized radiotherapy and chemotherapy” (The Journal of Clinical Investigation, 2019).

Biological target: T1, JAK2 JH1 JH2 (Homo sapiens, UniProt O60674)
T1 construct: JAK2 JH1 JH2; purchased Thermo Fisher Scientific (Life Technologies) SelectScreen
Experiment: SelectScreen Z'LYTE
Format: biochemical
Procedure, shortened: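 SelectScreen broad panel; activity (Z'LYTE, Adapta) plus binding formats. ATP: Km app for CSF1R Z'LYTE; 10 for CAMK1 Adapta. Readout = % per kinase.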

T1 sequence (O60674 532-1132 limits assumed): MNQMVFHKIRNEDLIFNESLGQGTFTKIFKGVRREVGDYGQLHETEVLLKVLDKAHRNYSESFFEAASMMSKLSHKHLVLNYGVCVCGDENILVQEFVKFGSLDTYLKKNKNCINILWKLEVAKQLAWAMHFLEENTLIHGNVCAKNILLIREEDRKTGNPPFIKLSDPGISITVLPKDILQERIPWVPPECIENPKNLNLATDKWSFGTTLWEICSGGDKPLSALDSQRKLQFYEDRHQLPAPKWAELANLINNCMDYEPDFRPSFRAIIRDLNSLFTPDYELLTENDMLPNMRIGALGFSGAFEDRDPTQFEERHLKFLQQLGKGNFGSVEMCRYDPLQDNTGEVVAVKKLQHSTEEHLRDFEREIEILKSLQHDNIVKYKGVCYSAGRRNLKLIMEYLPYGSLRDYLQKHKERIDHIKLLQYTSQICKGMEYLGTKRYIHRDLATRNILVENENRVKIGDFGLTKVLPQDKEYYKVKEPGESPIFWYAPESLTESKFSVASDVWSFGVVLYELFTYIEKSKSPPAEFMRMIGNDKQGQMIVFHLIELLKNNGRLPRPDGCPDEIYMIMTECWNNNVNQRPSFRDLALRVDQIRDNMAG

Work on `CN(C(=O)CN1CCOCC1)c1ccc2sc3c(-c4cccc5c(=O)cc(N6CC7CCC(C6)O7)oc45)cccc3c2c1` [NU5455] yielded an inhibition at 1 µM of -6.7%.
